Data as given in ChEMBL document CHEMBL6109068, “Design, synthesis, and biological evaluation of 5'-deoxy (N)-methanocarbanucleoside derivatives as A3 adenosine receptor ligands” (Bioorg Med Chem Lett, 2025).
pKi: −log10 of the molar value.

Columns and labels:
[1] = molecular target: T1, Adenosine receptor A3 (Homo sapiens) (UniProt P0DMS8); assay: Displacement of [3H]-NECA from human A3AR stably expressed in HeLa cell membrane at 10 uM relative to control; type: cell membranes
T1 sequence (whole entry): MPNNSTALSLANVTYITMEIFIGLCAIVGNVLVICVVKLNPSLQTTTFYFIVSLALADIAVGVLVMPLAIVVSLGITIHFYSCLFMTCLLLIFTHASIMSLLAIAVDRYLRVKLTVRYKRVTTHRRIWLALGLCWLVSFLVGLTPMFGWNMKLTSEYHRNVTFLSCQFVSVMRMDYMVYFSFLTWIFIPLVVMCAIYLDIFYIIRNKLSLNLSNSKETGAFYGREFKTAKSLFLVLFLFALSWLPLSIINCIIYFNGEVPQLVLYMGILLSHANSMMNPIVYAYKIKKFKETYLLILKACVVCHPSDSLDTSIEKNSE

Adenosine receptor A3 = molecular target: T2, Adenosine receptor A3 (Homo sapiens, UniProt P0DMS8); assay: Displacement of [3H]-NECA from human A3AR stably expressed in HeLa cell membrane; type: cell membranes
T2 sequence (P0DMS8 whole entry): T1 sequence (whole entry)

Row | inhibition [1] [%] | pKi (Adenosine receptor A3) | Structure (SMILES)
1 | 89 | – | C[C@]12C[C@@H]1[C@@H](n1cnc3c(N)nc(Cl)nc31)[C@H](O)[C@@H]2O
2 | – | 6.91 | C[C@]12C[C@@H]1[C@@H](n1cnc3c(NCc4cccc(F)c4)nc(Cl)nc31)[C@H](O)[C@@H]2O
3 | – | 7.15 | C[C@]12C[C@@H]1[C@@H](n1cnc3c(NCc4cccc(Cl)c4)ncnc31)[C@H](O)[C@@H]2O
